Measurements reported in US8471005B2 (Cephalon, Inc., priority 2008, dated 2013).
Like-named read-outs stand apart in the source and are kept apart here.

Key:
JAK2 = target: T1, JAK2 (Homo sapiens, UniProt O60674); test: Recombinant Human JAK2 Kinase Assay (TRF); assay type: biochemical; conditions: read-out: JAK2 Potency
T1 construct: host or cells: baculovirus expression system
How it was run: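 TRF read-out: Eu-N1 PY100 anti-phosphotyrosine antibody detects product. Enzyme is baculovirus-expressed JAK2 at 15 ng/ml; substrate is a biotinyl 15-mer peptide bound to Neutravidin-coated wells. Buffer 20 mM HEPES pH 7.2, 0.2 μM ATP, 1 mM MnCl2, 0.1% BSA, 2.5% DMSO final; 20 min, RT.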

ALK = target: T2, ALK (Homo sapiens, UniProt Q9UM73); test: ALK Kinase Assay (ELISA/TRF, PLC-γ substrate); assay type: biochemical; conditions: read-out: ALK Potency
T2 construct: host or cells: baculovirus expression system
How it was run: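 PLC-γ substrate coated at 10 μg/mL in TBS; reaction started with 30 ng/ml ALK, run 15 min at 37° C. Phosphoproduct detected by TRF with Eu-N1-labeled PT66 anti-phosphotyrosine antibody. IC50 from sigmoidal variable-slope fit of percent inhibition versus log concentration.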

[1] = JAK2 kinase inhibition, 0.2 μM ATP
[2] = ALK kinase inhibition, 1 μM ATP

T2 sequence (Q9UM73 19-1620): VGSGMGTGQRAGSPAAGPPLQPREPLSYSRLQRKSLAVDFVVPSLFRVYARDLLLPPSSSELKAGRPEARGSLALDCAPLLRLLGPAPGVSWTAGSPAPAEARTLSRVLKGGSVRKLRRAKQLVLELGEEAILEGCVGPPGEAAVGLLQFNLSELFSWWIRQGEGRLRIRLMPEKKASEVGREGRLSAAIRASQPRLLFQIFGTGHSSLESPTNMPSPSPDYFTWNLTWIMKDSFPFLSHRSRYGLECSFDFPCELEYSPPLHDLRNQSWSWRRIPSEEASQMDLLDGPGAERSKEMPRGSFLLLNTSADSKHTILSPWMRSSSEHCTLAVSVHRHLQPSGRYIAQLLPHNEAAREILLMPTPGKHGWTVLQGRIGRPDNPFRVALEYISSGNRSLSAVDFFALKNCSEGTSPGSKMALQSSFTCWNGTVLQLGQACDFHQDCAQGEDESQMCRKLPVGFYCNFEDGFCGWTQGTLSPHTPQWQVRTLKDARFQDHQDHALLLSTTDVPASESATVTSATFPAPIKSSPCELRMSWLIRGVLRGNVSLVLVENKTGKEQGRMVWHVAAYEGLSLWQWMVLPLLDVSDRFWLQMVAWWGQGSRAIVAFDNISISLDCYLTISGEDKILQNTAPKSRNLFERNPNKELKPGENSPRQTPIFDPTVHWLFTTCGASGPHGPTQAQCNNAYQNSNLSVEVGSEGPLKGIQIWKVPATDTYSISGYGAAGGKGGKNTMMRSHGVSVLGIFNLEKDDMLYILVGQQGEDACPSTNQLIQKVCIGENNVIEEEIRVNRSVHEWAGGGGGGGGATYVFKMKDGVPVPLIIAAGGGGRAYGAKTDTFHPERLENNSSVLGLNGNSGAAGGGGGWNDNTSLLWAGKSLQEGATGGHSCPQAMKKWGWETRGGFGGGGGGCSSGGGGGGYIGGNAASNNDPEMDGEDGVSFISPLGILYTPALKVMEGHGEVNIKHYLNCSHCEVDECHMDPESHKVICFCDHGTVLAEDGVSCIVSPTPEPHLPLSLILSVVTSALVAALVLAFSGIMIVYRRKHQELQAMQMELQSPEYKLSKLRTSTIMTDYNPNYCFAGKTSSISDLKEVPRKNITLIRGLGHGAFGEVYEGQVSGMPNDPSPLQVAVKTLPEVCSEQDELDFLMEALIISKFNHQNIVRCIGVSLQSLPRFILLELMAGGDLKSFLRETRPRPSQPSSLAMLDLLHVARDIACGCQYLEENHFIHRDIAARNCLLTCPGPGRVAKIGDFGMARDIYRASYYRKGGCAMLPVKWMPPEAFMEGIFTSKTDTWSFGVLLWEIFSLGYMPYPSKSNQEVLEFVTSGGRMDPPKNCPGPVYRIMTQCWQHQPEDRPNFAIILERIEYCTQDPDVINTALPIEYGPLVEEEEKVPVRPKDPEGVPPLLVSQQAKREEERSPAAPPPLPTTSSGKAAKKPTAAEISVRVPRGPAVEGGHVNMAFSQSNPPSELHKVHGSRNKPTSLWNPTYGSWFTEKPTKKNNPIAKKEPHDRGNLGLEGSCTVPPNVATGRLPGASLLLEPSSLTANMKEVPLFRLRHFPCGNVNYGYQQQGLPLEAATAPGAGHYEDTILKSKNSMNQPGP
T1 sequence (O60674 whole entry): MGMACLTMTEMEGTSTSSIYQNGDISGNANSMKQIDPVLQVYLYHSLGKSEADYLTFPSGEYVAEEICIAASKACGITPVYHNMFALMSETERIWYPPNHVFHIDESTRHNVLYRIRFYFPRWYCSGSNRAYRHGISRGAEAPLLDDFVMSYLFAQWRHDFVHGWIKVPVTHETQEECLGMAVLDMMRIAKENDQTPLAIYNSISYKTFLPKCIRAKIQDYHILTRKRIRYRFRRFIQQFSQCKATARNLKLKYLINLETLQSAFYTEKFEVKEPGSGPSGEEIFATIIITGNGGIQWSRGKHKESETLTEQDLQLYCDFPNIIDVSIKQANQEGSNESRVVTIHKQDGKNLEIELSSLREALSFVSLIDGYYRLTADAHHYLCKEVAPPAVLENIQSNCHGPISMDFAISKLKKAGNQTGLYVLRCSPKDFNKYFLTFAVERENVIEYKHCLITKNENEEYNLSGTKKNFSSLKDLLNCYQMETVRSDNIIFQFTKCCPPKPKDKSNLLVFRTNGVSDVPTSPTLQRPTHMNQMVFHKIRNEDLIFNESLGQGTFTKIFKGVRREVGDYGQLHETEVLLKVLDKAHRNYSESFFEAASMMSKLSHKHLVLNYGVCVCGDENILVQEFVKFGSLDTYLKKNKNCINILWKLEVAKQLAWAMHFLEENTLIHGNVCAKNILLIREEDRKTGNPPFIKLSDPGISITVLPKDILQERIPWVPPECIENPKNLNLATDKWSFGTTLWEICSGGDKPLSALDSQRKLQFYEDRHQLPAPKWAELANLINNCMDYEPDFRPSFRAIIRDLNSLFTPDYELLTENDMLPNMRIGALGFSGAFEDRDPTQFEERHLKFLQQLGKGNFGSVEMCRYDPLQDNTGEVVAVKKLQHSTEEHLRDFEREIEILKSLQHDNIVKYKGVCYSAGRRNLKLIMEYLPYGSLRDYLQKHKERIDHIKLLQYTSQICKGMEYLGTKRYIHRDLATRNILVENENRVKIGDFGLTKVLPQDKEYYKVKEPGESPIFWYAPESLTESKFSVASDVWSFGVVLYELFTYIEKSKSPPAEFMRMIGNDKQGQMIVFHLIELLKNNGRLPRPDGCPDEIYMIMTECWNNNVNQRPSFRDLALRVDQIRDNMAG

IC50 (JAK2; [1]) [nM] | IC50 (ALK; [2]) [nM] | IC50 (JAK2; JAK2 Kinase Inhibition) [nM] | IC50 (ALK; ALK Kinase Inhibition) [nM] | Structure (SMILES)
100 to 1000 | < 100 |  |  | COc1cc(C2CCN(CC(N)=O)C2)ccc1Nc1ncc2ccc(-c3ccccc3N(C)S(C)(=O)=O)n2n1 (racemic) [Example 837, (±)-2-[3-(4-{7-[2-(Methanesulfonyl-methyl-amino)-phenyl]-pyrrolo[2,1-f][1,2,4]triazin-2-ylamino}-3-methoxy-phenyl)-pyrrolidin-1-yl]-acetamide]
 |  | < 100 | < 100 | CC(C)(C)NS(=O)(=O)c1cccc(-c2ccc3cnc(Nc4cccc(C5(O)CCNCC5)c4)nn23)c1 [Example 1550, N-tert-Butyl-3-{2-[3-(4-hydroxy-piperidin-4-yl)-phenylamino]-pyrrolo[2,1-f][1,2,4]triazin-7-yl}-benzenesulfonamide]
 |  | < 100 | < 100 | Cc1cc(Nc2ncc3ccc(-c4cccc(Cl)c4)n3n2)ccc1N1CCN(C)CC1 [Example 69, [7-(3-Chloro-phenyl)-pyrrolo[2,1-f][1,2,4]triazin-2-yl]-[3-methyl-4-(4-methyl-piperazin-1-yl)-phenyl]-amine]
 |  | < 100 | 1000 to 10000 | COc1ccc(-c2ccc3cnc(Nc4ccc(C(=O)N5CCN(C)CC5)cc4)nn23)cn1 [Example 1420, {4-[7-(6-Methoxy-pyridin-3-yl)-pyrrolo[2,1-f][1,2,4]triazin-2-ylamino]-phenyl}-(4-methyl-piperazin-1-yl)-methanone]

Further lines, the molecule ahead of its results:

Structure (SMILES) | IC50 (JAK2; [1]) [nM] | IC50 (ALK; [2]) [nM] | IC50 (JAK2; JAK2 Kinase Inhibition) [nM] | IC50 (ALK; ALK Kinase Inhibition) [nM]
CN1CCN(c2ccc(Nc3ncc4ccc(C5=CCN(S(C)(=O)=O)CC5)n4n3)cc2)CC1 [Example 1139, [7-(1-Methane sulfonyl-1,2,3,6-tetrahydro-pyridin-4-yl)-pyrrolo[2,1-f][1,2,4]triazin-2-yl]-[4-(4-methyl-piperazin-1-yl)-phenyl]-amine] | < 100 | 100 to 1000 |  | 
CN(c1ccccc1-c1ccc2cnc(Nc3ccc4c(c3)CCCC(=O)N4)nn12)S(C)(=O)=O [Example 623, N-Methyl-N-{2-[2-(2-oxo-2,3,4,5-tetrahydro-1H-benzo[b]azepin-7-ylamino)-pyrrolo[2,1-f][1,2,4]triazin-7-yl]-phenyl}-methanesulfonamide] | < 100 | < 100 |  | 
COc1ccccc1-c1ccc2cnc(Nc3ccc(C4CCN(CC(N)=O)CC4)cc3)nn12 [Example 660, 2-(4-{4-[7-(2-Methoxy-phenyl)-pyrrolo[2,1-f][1,2,4]triazin-2-ylamino]-phenyl}-piperidin-1-yl)-acetamide] | < 100 | < 100 |  | 
COc1cc(N2CCC(N3CCOCC3)CC2)ccc1Nc1ncc2ccc(-c3ccc(F)cc3OC)n2n1 [Example 510, [7-(4-Fluoro-2-methoxy-phenyl)-pyrrolo[2,1-f][1,2,4]triazin-2-yl]-[2-methoxy-4-(4-morpholin-4-yl-piperidin-1-yl)-phenyl]-amine] | < 100 | < 100 |  | 
CN(c1ccccc1-c1ccc2cnc(Nc3ccc4c(c3)C(C)(C)C(=O)N4)nn12)S(C)(=O)=O [Example 632, N-{2-[2-(3,3-Dimethyl-2-oxo-2,3-dihydro-1H-indol-5-ylamino)-pyrrolo[2,1-f][1,2,4]triazin-7-yl]phenyl}N-methyl-methanesulfonamide] | < 100 | < 100 |  | 
CN1CCN(c2ncc3ccc(-c4ccccc4N(C)S(C)(=O)=O)n3n2)CC1 [Example 1250, N-Methyl-N-{2-[2-(4-methyl-piperazin-1-yl)-pyrrolo[2,1-f][1,2,4]triazin-7-yl]-phenyl}-methanesulfonamide] | 100 to 1000 | 1000 to 10000 |  | 
CN(c1cccc(-c2ccc3cnc(Nc4ccc(N5CCOCC5)cc4)nn23)c1)S(C)(=O)=O [Example 420, N-Methyl-N-{3-[2-(4-morpholin-4-yl-phenylamino)-pyrrolo[2,1-f][1,2,4]triazin-7-yl]-phenyl}-methanesulfonamide] |  |  | < 100 | 1000 to 10000
CS(=O)(=O)c1ccc(-c2ccc3cnc(Nc4ccc(N5CCCC(N6CCOCC6)C5)cc4)nn23)cc1 (stereo not drawn) [Example 346, [7-(4-Methanesulfonyl-phenyl)-pyrrolo[2,1-f][1,2,4]triazin-2-yl]-[4-(3-morpholin-4-yl-piperidin-1-yl)-phenyl]-amine] |  |  | < 100 | 100 to 1000
